Source: BindingDB's records for doi:10.1080/14756360310001613094 (Xiamen University, 2003)

Each compound was assayed against T1, Polyphenol oxidase 2 (Agaricus bisporus, UniProt O42713) (assay: Inhibition Assay).
T1 sequence (O42713 whole entry): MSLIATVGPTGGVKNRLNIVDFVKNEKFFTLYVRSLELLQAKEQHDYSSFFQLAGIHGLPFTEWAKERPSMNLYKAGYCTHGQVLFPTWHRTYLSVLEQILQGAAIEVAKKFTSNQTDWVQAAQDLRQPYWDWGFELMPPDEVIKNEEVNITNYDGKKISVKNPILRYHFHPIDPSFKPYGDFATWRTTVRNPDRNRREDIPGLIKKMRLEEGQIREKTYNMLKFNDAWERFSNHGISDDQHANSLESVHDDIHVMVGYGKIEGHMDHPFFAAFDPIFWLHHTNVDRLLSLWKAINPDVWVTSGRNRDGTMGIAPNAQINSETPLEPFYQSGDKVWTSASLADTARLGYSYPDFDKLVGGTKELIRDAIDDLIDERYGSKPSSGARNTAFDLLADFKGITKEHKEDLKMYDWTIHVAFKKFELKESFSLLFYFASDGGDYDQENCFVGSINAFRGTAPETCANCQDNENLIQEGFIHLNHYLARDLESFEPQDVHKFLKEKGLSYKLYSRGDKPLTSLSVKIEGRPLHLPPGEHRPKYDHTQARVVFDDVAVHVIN
From the text: Inhibition of alklbenzaldehydes on tyrosinase enzyme.

SMILES | IC50 | Ki
CCc1ccc(C=O)cc1 [p-Ethylbenzaldehyde, d] | 95 µM | 
CCCCCCCCc1ccc(C=O)cc1 [p-Octylbenzaldehyde, l] | 10 µM | 
CC(C)(C)c1ccc(C=O)cc1 [p-Tert-butylbenzaldehyde, g] | 38 µM | 
CC(C)c1ccc(C=O)cc1 [p-Isopropylbenzaldehyde, f] | 75 µM | 
CCCCCCCc1ccc(C=O)cc1 [p-Heptylbenzaldehyde, k] | 8.8 µM | 
Cc1ccc(C=O)cc1 [4-Methylbenzaldehyde] | 120 µM | 
CCCc1ccc(C=O)cc1 [p-Propyl-benzaldehyde, e] | 75 µM | 
Cc1cccc(C=O)c1 [m-Tolualdehyde, b] | 450 µM | 290 µM
CCCCc1ccc(C=O)cc1 [p-butyl-benzaldehyde, h] | 38 µM | 
CCCCCCc1ccc(C=O)cc1 [p-Hexylbenzaldehyde, j] | 8 µM | 
Cc1ccccc1C=O [o-Tolualdehyde, a] | 2600 µM | 1850 µM
CCCCCc1ccc(C=O)cc1 [p-Pentylbenzaldehyde, i] | 13.5 µM | 
